# ± gives the standard deviation of the averaged measurements.
# Compound: CCC1=C[C@@H]2CN(C1)Cc1c([nH]c3ccccc13)[C@@](C(=O)OC)(c1cc3c(cc1OC)N(C)[C@H]1[C@@](O)(C(=O)OC)[C@H](OC(C)=O)[C@]4(CC)C=CCN5CC[C@]31[C@@H]54)C2 [VINORELBINE]
# Assay: surviving fraction relative to DMSO-only wells; higher = less growth inhibition
# Conditions: 50 nM; exposure time: 5 days
# How it was run: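 Tumour cell lines in log phase were plated in 384-well plates at 250–500 cells per well, then, after 24 hours, exposed continuously for five days to inhibitors at 0.5, 1, 5, 10, 50, 100, 500 and 1000 nM. Viability came from CellTiter-Glo luminescence, and surviving fraction is that signal normalised to the median of DMSO-only wells. Plates were read after 10 minutes at room temperature, and each line, screened three times, was kept only when replicate Pearson r was >0.7 and median Z' was >0.3.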
row,Test System,surviving fraction
1,HU09 BONE,0.124 ± 0.015
2,JIMT1 BREAST,0.127 ± 0.011
3,JURKAT HAEMATOPOIETIC AND LYMPHOID TISSUE,0.0297 ± 0.00058
4,KPD BONE,0.5 ± 0.011
5,LM7 BONE,0.115 ± 0.0052
6,MCF7 BREAST,0.466 ± 0.017
7,MDAMB134 BREAST,0.728 ± 0.016
8,MDAMB157 BREAST,0.11 ± 0.026
9,MDAMB231 BREAST,0.238 ± 0.008
10,MDAMB361 BREAST,0.607 ± 0.03
11,MDAMB436 BREAST,0.591 ± 0.032
12,MDAMB453 BREAST,0.16 ± 0.034
13,MDAMB468 BREAST,0.0613 ± 0.007
14,MFM223 BREAST,0.0818 ± 0.0055
15,MG63 BONE,0.07 ± 0.0095
16,MHM BONE,0.493 ± 0.025
17,NCIH441 LUNG,0.4817 ± 0.0045
18,NOS1 BONE,0.287 ± 0.047
19,NY BONE,0.0393 ± 0.0031
20,OS25HAL BONE,0.202 ± 0.02
21,OSHN BONE,0.0367 ± 0.0021

row,Test System,surviving fraction
1,PCI30 HEADNECK,0.078 ± 0.003
2,RDES SOFT TISSUE,0.0793 ± 0.0093
3,S68 BREAST,0.155 ± 0.034
4,SAOS2 BONE,0.155 ± 0.0063
5,SCC36 HEADNECK,0.161 ± 0.0035
6,SCC47 HEADNECK,0.231 ± 0.023
7,SCC90 HEADNECK,0.126 ± 0.0029
8,SG27 HEADNECK,1.03 ± 0.1
9,SG28 HEADNECK,0.589 ± 0.087
10,SG31 HEADNECK,0.369 ± 0.04
11,SG32 HEADNECK,0.258 ± 0.041
12,SG43 HEADNECK,0.47 ± 0.036
13,SIHA CERVIX,0.324 ± 0.016
14,SJSA1 BONE,0.499 ± 0.029
15,SKBR3 BREAST,0.146 ± 0.013
16,SNU475 LIVER,0.386 ± 0.041
17,SUM44 BREAST,0.258 ± 0.013
18,SUM149 BREAST,0.052 ± 0.0027
19,SUM149.B1*.S BREAST,0.338 ± 0.038
20,SUM159 BREAST,0.423 ± 0.19

# Same assay, conditions: 100 nM; exposure time: 5 days
row,Test System,surviving fraction
1,HU09 BONE,0.0583 ± 0.0064
2,JIMT1 BREAST,0.117 ± 0.0056
3,JURKAT HAEMATOPOIETIC AND LYMPHOID TISSUE,0.0247 ± 0.00058
4,KPD BONE,0.457 ± 0.035
5,LM7 BONE,0.105 ± 0.0081
6,MCF7 BREAST,0.428 ± 0.027
7,MDAMB134 BREAST,0.708 ± 0.05
8,MDAMB157 BREAST,0.0867 ± 0.013
9,MDAMB231 BREAST,0.244 ± 0.0099
10,MDAMB361 BREAST,0.566 ± 0.04
11,MDAMB436 BREAST,0.51 ± 0.033
12,MDAMB453 BREAST,0.116 ± 0.018
13,MDAMB468 BREAST,0.0593 ± 0.005
14,MFM223 BREAST,0.0723 ± 0.011
15,MG63 BONE,0.0503 ± 0.014
16,MHM BONE,0.325 ± 0.029
17,NCIH441 LUNG,0.422 ± 0.041
18,NOS1 BONE,0.263 ± 0.035
19,NY BONE,0.035 ± 0.006
20,OS25HAL BONE,0.0833 ± 0.0083
21,OSHN BONE,0.025 ± 0.001

row,Test System,surviving fraction
1,PCI30 HEADNECK,0.0933 ± 0.022
2,RDES SOFT TISSUE,0.071 ± 0.011
3,S68 BREAST,0.143 ± 0.013
4,SAOS2 BONE,0.0997 ± 0.0029
5,SCC36 HEADNECK,0.135 ± 0.026
6,SCC47 HEADNECK,0.1977 ± 0.0011
7,SCC90 HEADNECK,0.099 ± 0.0066
8,SG27 HEADNECK,1.15 ± 0.018
9,SG28 HEADNECK,0.538 ± 0.11
10,SG31 HEADNECK,0.315 ± 0.021
11,SG32 HEADNECK,0.302 ± 0.053
12,SG43 HEADNECK,0.364 ± 0.093
13,SIHA CERVIX,0.277 ± 0.085
14,SJSA1 BONE,0.211 ± 0.022
15,SKBR3 BREAST,0.156 ± 0.019
16,SNU475 LIVER,0.197 ± 0.021
17,SUM44 BREAST,0.225 ± 0.023
18,SUM149 BREAST,0.0443 ± 0.0076
19,SUM149.B1*.S BREAST,0.154 ± 0.017
20,SUM159 BREAST,0.156 ± 0.052

# Same assay, conditions: 500 nM; exposure time: 5 days
row,Test System,surviving fraction
1,HU09 BONE,0.0547 ± 0.004
2,JIMT1 BREAST,0.113 ± 0.0063
3,JURKAT HAEMATOPOIETIC AND LYMPHOID TISSUE,0.025
4,KPD BONE,0.445 ± 0.011
5,LM7 BONE,0.0943 ± 0.011
6,MCF7 BREAST,0.357 ± 0.0083
7,MDAMB134 BREAST,0.69 ± 0.085
8,MDAMB157 BREAST,0.0783 ± 0.015
9,MDAMB231 BREAST,0.189 ± 0.0019
10,MDAMB361 BREAST,0.5787 ± 0.0021
11,MDAMB436 BREAST,0.211 ± 0.013
12,MDAMB453 BREAST,0.176 ± 0.044
13,MDAMB468 BREAST,0.117 ± 0.016
14,MFM223 BREAST,0.0547 ± 0.00076
15,MG63 BONE,0.0683 ± 0.0071
16,MHM BONE,0.22 ± 0.013
17,NCIH441 LUNG,0.497 ± 0.054
18,NOS1 BONE,0.195 ± 0.017
19,NY BONE,0.0417 ± 0.0074
20,OS25HAL BONE,0.0677 ± 0.011
21,OSHN BONE,0.026

row,Test System,surviving fraction
1,PCI30 HEADNECK,0.113 ± 0.025
2,RDES SOFT TISSUE,0.039 ± 0.0036
3,S68 BREAST,0.0783 ± 0.015
4,SAOS2 BONE,0.11 ± 0.0081
5,SCC36 HEADNECK,0.0993 ± 0.011
6,SCC47 HEADNECK,0.302 ± 0.022
7,SCC90 HEADNECK,0.097 ± 0.01
8,SG27 HEADNECK,1.26 ± 0.08
9,SG28 HEADNECK,0.521 ± 0.016
10,SG31 HEADNECK,0.308 ± 0.057
11,SG32 HEADNECK,0.409 ± 0.076
12,SG43 HEADNECK,0.242 ± 0.066
13,SIHA CERVIX,0.341 ± 0.022
14,SJSA1 BONE,0.0877 ± 0.009
15,SKBR3 BREAST,0.179 ± 0.0087
16,SNU475 LIVER,0.17 ± 0.019
17,SUM44 BREAST,0.264 ± 0.014
18,SUM149 BREAST,0.0563 ± 0.0047
19,SUM149.B1*.S BREAST,0.171 ± 0.019
20,SUM159 BREAST,0.129 ± 0.053

# Same assay, conditions: 1000 nM; exposure time: 5 days
row,Test System,surviving fraction
1,HU09 BONE,0.0747 ± 0.0045
2,JIMT1 BREAST,0.11 ± 0.0053
3,JURKAT HAEMATOPOIETIC AND LYMPHOID TISSUE,0.0233 ± 0.00058
4,KPD BONE,0.383 ± 0.026
5,LM7 BONE,0.122 ± 0.013
6,MCF7 BREAST,0.221 ± 0.018
7,MDAMB134 BREAST,0.767 ± 0.091
8,MDAMB157 BREAST,0.12 ± 0.025
9,MDAMB231 BREAST,0.172 ± 0.009
10,MDAMB361 BREAST,0.502 ± 0.058
11,MDAMB436 BREAST,0.221 ± 0.018
12,MDAMB453 BREAST,0.25 ± 0.048
13,MDAMB468 BREAST,0.177 ± 0.0095
14,MFM223 BREAST,0.0517 ± 0.0023
15,MG63 BONE,0.065 ± 0.0046
16,MHM BONE,0.195 ± 0.014
17,NCIH441 LUNG,0.423 ± 0.044
18,NOS1 BONE,0.188 ± 0.016
19,NY BONE,0.0433 ± 0.0075
20,OS25HAL BONE,0.057 ± 0.007
21,OSHN BONE,0.0293 ± 0.00058

row,Test System,surviving fraction
1,PCI30 HEADNECK,0.147 ± 0.025
2,RDES SOFT TISSUE,0.039 ± 0.005
3,S68 BREAST,0.0627 ± 0.0081
4,SAOS2 BONE,0.104 ± 0.032
5,SCC36 HEADNECK,0.1 ± 0.024
6,SCC47 HEADNECK,0.289 ± 0.0068
7,SCC90 HEADNECK,0.106 ± 0.015
8,SG27 HEADNECK,1.33 ± 0.27
9,SG28 HEADNECK,0.542 ± 0.071
10,SG31 HEADNECK,0.38 ± 0.072
11,SG32 HEADNECK,0.437 ± 0.048
12,SG43 HEADNECK,0.138 ± 0.066
13,SIHA CERVIX,0.327 ± 0.055
14,SJSA1 BONE,0.0907 ± 0.0081
15,SKBR3 BREAST,0.182 ± 0.015
16,SNU475 LIVER,0.204 ± 0.032
17,SUM44 BREAST,0.256 ± 0.024
18,SUM149 BREAST,0.061 ± 0.0046
19,SUM149.B1*.S BREAST,0.193 ± 0.0067
20,SUM159 BREAST,0.12 ± 0.046

# — the supplement of paper PMC6045584
